In patent US20040044281A1, “Systems and methods for assessing blood flow in a target tissue” (priority 2002, published 2004):
Where “and” joins values, the source holds several entries; their conditions need not be identical. Equal values may be shown once.

System: tumor blood flow
Assay: DCE-MRI tumor blood flow estimation pre- and post-treatment in patients of a phase I trial
Assay type: in vivo, human
Set-up: Change tgp / Change Gpeak / Change tgp10 / Change E: unit not given here
Conditions: individual patients; for Post-treatment E (enhancement) / Post-treatment Gpeak (gradient peak) / Post-treatment tgp10 (time till gradient drops to 10% of Gpeak) / Post-treatment tgp (time to gradient peak): DCE-MRI 4-6 hrs after infusion, tumor ROI; for Change E / Change Gpeak / Change tgp / Change tgp10: post minus pre-treatment
Protocol: The above equation (4) for Srel can be solved for the concentration variable C if the baseline set of MR image data set is set equal to Sbaseline, and the post MR sets of image data is set equal to the variable Spostcontrast. Concentration C can be calculated on a pixel by pixel or voxel by voxel basis and then averaged resulting in a data set of Concentration C as a function of time. A shown in Block 50 of FIG. 1, the mathematical derivative of Concentration C is determined, preferably by fitting a curve through the concentration data set and then taking the derivative of the curve equation to acquire a gradient curve. The gradient curve represents the rate of change of the tissue concentration of the contrast agent in the ROI. As shown in block 60 of FIG. 1, the maximum value of the rate of change of concentration per time (dC/dt) or Gpeak, is then determined. Thus, Gpeak, which is the magnitude of the first derivative of the concentration curve, can be employed as a flow analog that maintains a high correlation with flow with minimal sensitivity to variations in volume Ve. MRI acquisition techniques, coupled with image analysis techniques (e.g., intensity, rate of change of intensity), facilitate determining the efficacy of a treatment.
With A=40 mMol·sec (the area under curve without recirculation), B=0.5 mMol (the equilibrium concentration), and tp was the time to peak. […] In each case flow F was varied from 0.001 to 0.03 ml/sec/g. Five parameters were calculated from each curve as shown for example purposes in FIG. 5. Magnitude of the first derivative peak (Gpeak), time from bolus arrival to first derivative peak (tgp,) time for gradient to drop to 10% of peak value (tgp10,), the concentration at tgp10 (denoted CE), and initial area under the CT curve from bolus arrival to 60 sec afterwards (IAUC) (Evelhoch, 1999.
DCE-MRI. Six patients were studied using a 1.5T scanner (Siemens Magnetom Vision). Perfusion studies were obtained with a single-slice Fast Low Angle Shot (FLASH) sequence (TR=10, TE=4, FA=30°, slice thickness=10 mm, matrix=128×256, FOV=16×25 cm-35×35 cm) repeated 128 times, once every 2.6 seconds. The first 10 images were obtained without contrast enhancement, after which an approximately 10 second bolus of Gadolinium-DTPA contrast agent (Magnevist, Berlex Laboratories) was administered intravenously. […] DCE-MRI was performed twice on each patient; once to obtain a pre-treatment baseline, and once 4-6 hrs after infusion of combretestatin. The slice position and orientation between days within each patient was carefully matched to obtain data from the same region of interest (ROI) in the tumor. Image processing was performed off-line using a custom software package that permitted a trained rater to view all 128 images in a study and to interactively identify the tumor ROI.

## COc1ccc(/C=C\c2cc(OC)c(OC)c(OC)c2)cc1OP(=O)(O)O [CA4P, disodium combretastatin-A-4-3-O-phosphate]
60 mg/m^2 (10 min)
  Post-treatment E (enhancement): 2.01 and 1.87
  Post-treatment Gpeak (gradient peak): 6.18 and 5.71
  Post-treatment tgp10 (time till gradient drops to 10% of Gpeak): 25.30 and 34.50
  Post-treatment tgp (time to gradient peak): 11.50 and 6.90
  Change E: −0.41 and 0.05
  Change Gpeak: −1.12 and 0.92
  Change tgp: 0.00
  Change tgp10: −13.80 and −4.60
60 mg/m^2 (1 hr)
  Post-treatment E (enhancement): 1.72 and 1.76 and 1.80 and 1.28 and 1.30
  Post-treatment Gpeak (gradient peak): 4.93 and 3.57 and 3.47 and 2.19 and 1.48
  Post-treatment tgp10 (time till gradient drops to 10% of Gpeak): 36.60 and 44.50 (2×) and 20.90 and 52.60
  Post-treatment tgp (time to gradient peak): 7.86 (2×) and 15.70 and 13.10 and 11.70
  Change E: −0.27 and −0.06 and −0.13 and −0.22 and −0.20
  Change Gpeak: −3.76 and −1.05 and −1.53 and −1.44 and −1.75
  Change tgp: 0.00 and 2.60 and 5.24 and 2.62 and −4.00
  Change tgp10: 18.30 and 5.20 and 10.50 and −15.70 and 21.20
